In patent US20090298781A1, “COMPOUNDS FOR THE INHIBITION OF APOPTOSIS” (CONSEJO SUPERIOR DE, priority 2005, published 2009):
Non-standard residues stand in square brackets, D forms with d. Residues, ends and D or L forms follow the SMILES beside them. *: point of attachment. X1 = O=C1CC(C(=O)*)N(CCC(c2ccccc2)c2ccccc2)C(=O)CN1CCc1ccc(Cl)cc1Cl; N(2,4-Cl2-phenethyl)Gly = O=C(O)CNCCc1ccc(Cl)cc1Cl

Target: T1, recombinant Apaf-1 (Homo sapiens, UniProt O14727)
T1 construct: made in house
T1 sequence (O14727 1-1248): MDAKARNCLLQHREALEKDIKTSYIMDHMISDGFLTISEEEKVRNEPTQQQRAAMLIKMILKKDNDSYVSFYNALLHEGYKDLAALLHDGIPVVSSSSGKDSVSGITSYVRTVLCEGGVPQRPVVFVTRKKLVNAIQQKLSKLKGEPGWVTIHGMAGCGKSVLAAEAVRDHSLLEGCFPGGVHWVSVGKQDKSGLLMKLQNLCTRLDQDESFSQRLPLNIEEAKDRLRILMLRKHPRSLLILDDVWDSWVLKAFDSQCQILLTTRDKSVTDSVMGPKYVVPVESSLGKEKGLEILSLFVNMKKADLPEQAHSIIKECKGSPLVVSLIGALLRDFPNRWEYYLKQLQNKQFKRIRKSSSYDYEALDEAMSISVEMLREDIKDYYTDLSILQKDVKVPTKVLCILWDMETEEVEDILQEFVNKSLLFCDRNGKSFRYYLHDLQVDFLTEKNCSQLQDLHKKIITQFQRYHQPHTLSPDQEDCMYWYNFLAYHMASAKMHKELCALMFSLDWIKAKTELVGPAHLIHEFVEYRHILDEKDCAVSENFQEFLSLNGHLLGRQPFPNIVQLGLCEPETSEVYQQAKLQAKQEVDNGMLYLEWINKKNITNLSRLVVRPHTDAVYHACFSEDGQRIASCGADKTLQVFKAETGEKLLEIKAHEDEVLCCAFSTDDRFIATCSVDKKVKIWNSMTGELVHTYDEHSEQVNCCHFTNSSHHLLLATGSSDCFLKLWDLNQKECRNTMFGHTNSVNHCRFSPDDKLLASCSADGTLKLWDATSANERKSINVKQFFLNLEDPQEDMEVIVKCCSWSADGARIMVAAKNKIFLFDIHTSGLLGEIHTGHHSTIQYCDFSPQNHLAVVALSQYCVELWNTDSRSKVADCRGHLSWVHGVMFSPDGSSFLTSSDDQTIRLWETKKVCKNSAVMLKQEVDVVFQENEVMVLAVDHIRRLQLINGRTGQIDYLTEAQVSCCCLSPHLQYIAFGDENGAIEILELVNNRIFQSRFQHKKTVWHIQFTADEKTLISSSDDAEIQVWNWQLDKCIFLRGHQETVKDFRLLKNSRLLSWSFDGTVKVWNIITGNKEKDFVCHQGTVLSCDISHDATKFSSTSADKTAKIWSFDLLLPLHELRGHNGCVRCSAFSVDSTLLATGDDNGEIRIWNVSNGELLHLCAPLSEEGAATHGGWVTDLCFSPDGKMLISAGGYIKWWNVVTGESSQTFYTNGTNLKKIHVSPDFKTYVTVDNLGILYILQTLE
Assay: Cell-free caspase inhibition assay, Hek-293 FT cytoplasmatic fraction with recombinant Apaf-1
Assay type: biochemical
Settings: Hek-293 FT fraction + recombinant Apaf-1 (FIG. 1), read-out: IC50, concentration needed to inhibit 50% of caspase activity
Method: The activity of the compounds regards their specific target within the apoptotic machinery was assessed. Apaf-1 oligomerisation is a molecular event that leads to the activation of the apoptosome formation, which ends up in the induction of apoptosis. These experiments were performed in cell-free and in cellular assays.
For the cell-free assays, Hek-293 cytoplasmatic extracts were prepared as described before (Malet et al, 2005) and a partitioning of the complete cell extract was carried out. Concomitantly, recombinant Apaf-1 was purified according to Malet et al, 2005. The FT fraction (containing caspase-3 and -9 but lacking Apaf-1), was incubated with recombinant Apaf-1 in the presence of different concentrations of the compounds (see FIG. 1). The activity of the compounds was analysed by the inhibition of caspase activity (see above).
FIG. 1: Cell-free caspase inhibition assay using Hek-293 FT cytoplasmatic fraction incubated with recombinant Apaf-1 in the presence of different concentrations the compound IIa.1.

IC50: ~30 µM
Structure (SMILES): NCCCC[C@H](NC(=O)CNC(=O)CNC(=O)CN(CCc1ccc(Cl)cc1Cl)C(=O)C1CC(=O)N(CCc2ccc(Cl)cc2Cl)CC(=O)N1CCC(c1ccccc1)c1ccccc1)C(N)=O (stereo partly shown) [IIa.1, 1-[2-(2,4-Dichlorophenyl)ethyl]-3-(3,3-diphenyl-propyl)-3,7-dioxo[1,4]diazepane-5-carboxylic acid {[({[(5-amino-1-carbamoylpentylcarbamoyl)methyl]-carbamoyl}methyl)carbamoyl]methyl}-[2-(2,4-dichlorophenyl)ethyl]amide] (X1-[N(2,4-Cl2-phenethyl)Gly]GGK-NH2)
